In general, IC50 refers to the concentration needed to halve the response being measured. A higher IC50 goes with a need for much substance.

Where a name gives a salt, the structure may show the parent alone.

For the test, the target named is T1, DPP-IV from porcine kidney (Sus scrofa, UniProt P22411).
T1 construct: DPP-IV from porcine kidney (Sigma Chemical Co, Munich DE); purchased Sigma Chemical Co, Munich DE; host or cells: porcine kidney (tissue-derived)
T1 sequence (P22411 whole entry): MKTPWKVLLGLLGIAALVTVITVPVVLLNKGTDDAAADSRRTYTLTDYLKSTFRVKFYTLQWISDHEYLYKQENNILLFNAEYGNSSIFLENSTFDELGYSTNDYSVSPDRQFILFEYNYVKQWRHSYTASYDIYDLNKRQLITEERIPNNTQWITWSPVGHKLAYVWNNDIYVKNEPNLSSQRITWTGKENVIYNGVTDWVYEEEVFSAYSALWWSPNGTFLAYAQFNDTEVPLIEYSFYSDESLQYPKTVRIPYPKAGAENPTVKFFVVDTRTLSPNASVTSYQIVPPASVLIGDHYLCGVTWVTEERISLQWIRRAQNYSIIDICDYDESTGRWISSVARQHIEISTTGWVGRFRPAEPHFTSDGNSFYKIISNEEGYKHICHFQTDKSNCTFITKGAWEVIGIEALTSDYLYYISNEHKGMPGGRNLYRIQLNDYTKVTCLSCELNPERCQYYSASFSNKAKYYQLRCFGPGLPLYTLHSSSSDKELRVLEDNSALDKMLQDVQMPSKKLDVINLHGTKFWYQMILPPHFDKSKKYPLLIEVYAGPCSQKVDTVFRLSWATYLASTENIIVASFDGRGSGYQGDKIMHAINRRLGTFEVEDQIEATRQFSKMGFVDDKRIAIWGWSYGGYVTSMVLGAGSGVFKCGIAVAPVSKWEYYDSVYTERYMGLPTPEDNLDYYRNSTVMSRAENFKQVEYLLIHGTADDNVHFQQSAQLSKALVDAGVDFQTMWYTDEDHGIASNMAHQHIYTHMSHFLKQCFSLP
Briefly: Measurement of the DPP-IV activity (fluorimetric H-Ala-Pro-AFC conversion). It is filed as biochemical. The note with it: substrate H-Ala-Pro-AFC 15 μM, DPP-IV 1 mU/ml, Tris/HCl pH 7.4, room temperature. How it is done: a) Measurement of the DPP-IV Activity:
DPP-IV from porcine kidney (Sigma Chemical Co, Munich DE)
H-Ala-Pro-AFC (Bachem Chemical Co, Weil am Rhein DE)
Dipeptidyl peptidase-IV (DPP-IV) (1 mU/ml, final concentration)
H-Ala-Pro-AFC (15 μM, final concentration) in Tris/HCl (40 mM, pH 7.4), total volume 0.2 ml
The reaction was carried out at room temperature for various times (typically 10 min) and stopped at the end of the reaction by adding 20 μl of ZnCl2(1M). The H-Ala-Pro-AFC conversion was determined fluorimetrically by measuring the emission at 535 nm after excitation at 405 nm. When inhibitors were added, the added buffer volume was adapted so that a total volume of 200 μl was maintained for the assay mixture.
IC50 values for inhibitors were determined by varying the inhibitor concentrations with the stated substrate concentration of 15 μM. Ki and Km values were found by appropriate variation of substrate concentration and inhibitor concentration as described (Dixon, M. and Webb, E. C.(1979) Enzymes, third edition, pp. 47-206, Academic Press). The values for Km, IC50 and Ki were calculated using a commercially available software package (Leatherbarrow, R. J. (1992) GraFit Version 3.0, Erithacus Software Ltd. Staines, U.K.).
Compound `Cn1c(=O)n(CC(=O)c2ccccc2)c(=O)c2c1nc(SC1(CN)CCCC1)n2Cc1ccccc1` [Example 63, 8-(1-Aminomethylcyclopentylsulfanyl)-7-benzyl-3-methyl-1-(2-oxo-2-phenyl-ethyl)-3,7-dihydropurine-2,6-dione trifluoroacetate] gave a concentration for half-maximal inhibition (IC50) of 14 nM.
With `CC(C)=CCn1c(SC(C)(C)CN)nc2c1c(=O)n(Cc1cc(C)on1)c(=O)n2C` [Example 21, 8-(2-Amino-1,1-dimethylethylsulfanyl)-3-methyl-7-(3-methylbut-2-enyl)-1-(5-methylisoxazol-3-ylmethyl)-3,7-dihydropurine-2,6-dione hydrochloride] the figure was 170 nM.
With `CC#CCn1c(SC(C)(C)CN)nc2c1c(=O)n(CC(=O)c1ccccc1)c(=O)n2C` [Example 26, 8-(2-Amino-1,1-dimethylethylsulfanyl)-7-but-2-ynyl-3-methyl-1-(2-oxo-2-phenylethyl)-3,7-dihydropurine-2,6-dione] the figure was 27 nM; with `CC(C)=CCn1c(SC(C)(C)CN)nc2c1c(=O)n(CC(=O)c1ccccc1)c(=O)n2C` [Example 1, 8-(2-Amino-1,1-dimethylethylsulfanyl)-3-methyl-7-(3-methylbut-2-enyl)-1-(2-oxo-2-phenylethyl)-3,7-dihydropurine-2,6-dione], 1.7 nM; with `CC(C)=CCn1c(SC2(CN)CCCC2)nc2c1c(=O)n(CC(=O)c1ccccc1)c(=O)n2C` [Example 64, 8-(1-Aminomethylcyclopentylsulfanyl)-3-methyl-7-(3-methylbut-2-enyl)-1-(2-oxo-2-phenylethyl)-3,7-dihydropurine-2,6-dione trifluoroacetate], 7 nM.
The figure for `CC(C)=CCn1c(SC(C)(C)CN)nc2c1c(=O)n(CC(=O)c1ccccc1)c(=O)n2C1CC1` [Example 24, 8-(2-Amino-1,1-dimethylethylsulfanyl)-3-cyclopropyl-7-(3-methylbut-2-enyl) -1-(2-oxo-2-phenylethyl)-3,7-dihydropurine-2,6-dione] is 9.4 nM; for `CC(C)=CCn1c(SC(C)(C)CN)nc2c1c(=O)n(Cc1nnc(C3CC3)s1)c(=O)n2C` [Example 12, 8-(2-Amino-1,1-dimethylethylsulfanyl)-1-(5-cyclopropyl-[1,3,4]thiadiazol-2-ylmethyl)-3-methyl-7-(3-methylbut-2-enyl)-3,7-dihydropurine-2,6-dione] it is 90 nM; for `CC(C)=CCn1c(SCC(C)(C)N)nc2c1c(=O)n(CC(=O)c1ccccc1)c(=O)n2C` [Example 10, 8-(2-Amino-2-methylpropylsulfanyl)-3-methyl-7-(3-methylbut-2-enyl)-1-(2-oxo-2-phenylethyl)-3,7-dihydropurine-2,6-dione] it is 120 nM.
For `CC(C)=CCn1c(SC(C)(C)CN)nc2c1c(=O)n(Cc1nc3cc(F)ccc3s1)c(=O)n2C` [Example 19, 8-(2-Amino-1,1-dimethylethylsulfanyl)-1-(5-fluorobenzothiazol-2-ylmethyl) -3-methyl-7-(3-methylbut-2-enyl)-3,7-dihydropurine-2,6-dione], the IC50 is 24 nM.
The figure for `CC(C)=CCn1c(SC(C)(C)CN)nc2c1c(=O)n(CCc1ccccc1)c(=O)n2C1CC1` [Example 25, 8-(2-Amino-1,1-dimethylethylsulfanyl)-3-cyclopropyl-7-(3-methylbut-2-enyl) -1-phenethyl-3,7-dihydropurine-2,6-dione] is 48 nM; for `CC(C)=CCn1c(SC(C)(C)CN)nc2c1c(=O)n(CC(=O)c1ccccc1Cl)c(=O)n2C` [Example 42, 8-(2-Amino-1,1-dimethylethylsulfanyl)-1-[2-(2-chlorophenyl)-2-oxoethyl]-3-methyl-7-(3-methylbut-2-enyl)-3,7-dihydropurine-2,6-dione] it is 16 nM; for `CC(C)=CCn1c(SC(C)(C)CN)nc2c1c(=O)n(CC(=O)c1ccccc1)c(=O)n2CC(F)(F)F` [Example 36, 8-(2-Amino-1,1-dimethylethylsulfanyl)-7-(3-methylbut-2-enyl)-1-(2-oxo-2-phenylethyl)-3-(2,2,2-trifluoroethyl)-3,7-dihydropurine-2,6-dione] it is 21 nM.
With `CC(C)=CCn1c(SC(C)(C)CN)nc2c1c(=O)n(CC(=O)c1cccc(Cl)c1)c(=O)n2C` [Example 43, 8-(2-Amino-1,1-dimethylethylsulfanyl)-1-[2-(3-chlorophenyl)-2-oxoethyl]-3-methyl-7-(3-methylbut-2-enyl)-3,7-dihydropurine-2,6-dione] the figure was 30 nM; with `CCn1c(=O)n(CC(=O)c2ccccc2)c(=O)c2c1nc(SC(C)(C)CN)n2CC=C(C)C` [Example 23, 8-(2-Amino-1,1-dimethylethylsulfanyl)-3-ethyl-7-(3-methylbut-2-enyl)-1-(2-oxo-2-phenylethyl)-3,7-dihydropurine-2,6-dione], 4.5 nM; with `CC(C)=CCn1c(SC(C)(C)CN)nc2c1c(=O)[nH]c(=O)n2C` [Example 5, 8-(2-Amino-1,1-dimethylethylsulfanyl)-3-methyl-7-(3-methylbut-2-enyl)-3,7-dihydropurine-2,6-dione], 84 nM.
The figure for `CC(C)=CCn1c(SCCN)nc2c1c(=O)n(CC(=O)c1ccccc1)c(=O)n2C` [Example 3, 8-(2-Aminoethylsulfanyl)-3-methyl-7-(3-methylbut-2-enyl)-1-(2-oxo-2-phenylethyl)-3,7-dihydropurine-2,6-dione] is 72 nM.

The values are drawn from patent US8236810B2, “Substituted 8-aminoalkylthioxanthines, and their use as inhibitors of dipeptidyl peptidase IV” (Sanofi-Aventis Deutschland GmbH, priority 2004, dated 2012).
